Drawing on patent US12655142B2 (Merck Patent GmbH, priority 2019, dated 2026), this text covers IC50 for 27 compounds.

Each structure is given as a SMILES string.

The target of test [1] is T1, GIST430/654 cell line expressing mutated constitutively active cKIT receptor tyrosine kinase (Δ560-576 deletion and V654A point mutation) (Homo sapiens, UniProt P10721, DEL560-576/V654A).
T1 construct: endogenous in cells; host or cells: GIST430/654 cells
Nature of the test: Cellular cKIT autophosphorylation (phospho-Y307-cKIT, Luminex bead assay) in GIST430/654 cells. Type of test: cell-based. As to conditions: compounds 45 min, read-out: GIST 430/654 IC50. An outline of the steps: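 GIST430 (Δ560-576) and imatinib-resistant GIST430/654 (plus V654A; grown with 100 nM imatinib) cells were plated in IMDM/15% FCS and treated next day with serially diluted compound for 45 min. Lysates were captured on anti-total-cKIT Luminex beads overnight at 4 °C and probed for phospho-Y307. IC50 was taken from percent of 0.3% DMSO control.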

Test [2] addresses T2, c-Kit(V654A) (Homo sapiens, UniProt P10721, V654A).
T2 construct: recombinant human c-Kit, amino acids 544-end containing the V654A mutation; GST (N)
Nature of the test: c-Kit(V654A) assay (33P-ATP filter binding kinase assay). Type of test: biochemical. The note with it: recombinant human c-Kit aa 544-end V654A, ATP 200 μM. In short, it runs like this: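 Radiometric filter-binding read-out: substrate 33P incorporation counted by scintillation after P30 filtermat washes in 75 mM phosphoric acid and methanol. Enzyme: N-GST recombinant human c-Kit aa 544-end carrying V654A.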

T2 sequence (P10721 544-976 V654A): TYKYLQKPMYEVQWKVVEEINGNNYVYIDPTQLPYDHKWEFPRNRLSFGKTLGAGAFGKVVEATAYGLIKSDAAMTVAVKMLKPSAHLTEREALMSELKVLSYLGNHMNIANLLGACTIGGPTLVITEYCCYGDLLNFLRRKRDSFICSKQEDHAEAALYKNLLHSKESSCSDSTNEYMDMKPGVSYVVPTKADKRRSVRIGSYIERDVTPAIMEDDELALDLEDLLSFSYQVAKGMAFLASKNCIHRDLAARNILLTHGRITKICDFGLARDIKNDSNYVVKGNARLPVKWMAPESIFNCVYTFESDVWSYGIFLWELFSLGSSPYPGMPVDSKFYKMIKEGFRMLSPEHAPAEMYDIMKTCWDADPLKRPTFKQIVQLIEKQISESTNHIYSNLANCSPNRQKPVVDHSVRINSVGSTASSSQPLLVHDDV
T1 sequence (P10721 with tags, fused parts or gaps DEL560-576/V654A): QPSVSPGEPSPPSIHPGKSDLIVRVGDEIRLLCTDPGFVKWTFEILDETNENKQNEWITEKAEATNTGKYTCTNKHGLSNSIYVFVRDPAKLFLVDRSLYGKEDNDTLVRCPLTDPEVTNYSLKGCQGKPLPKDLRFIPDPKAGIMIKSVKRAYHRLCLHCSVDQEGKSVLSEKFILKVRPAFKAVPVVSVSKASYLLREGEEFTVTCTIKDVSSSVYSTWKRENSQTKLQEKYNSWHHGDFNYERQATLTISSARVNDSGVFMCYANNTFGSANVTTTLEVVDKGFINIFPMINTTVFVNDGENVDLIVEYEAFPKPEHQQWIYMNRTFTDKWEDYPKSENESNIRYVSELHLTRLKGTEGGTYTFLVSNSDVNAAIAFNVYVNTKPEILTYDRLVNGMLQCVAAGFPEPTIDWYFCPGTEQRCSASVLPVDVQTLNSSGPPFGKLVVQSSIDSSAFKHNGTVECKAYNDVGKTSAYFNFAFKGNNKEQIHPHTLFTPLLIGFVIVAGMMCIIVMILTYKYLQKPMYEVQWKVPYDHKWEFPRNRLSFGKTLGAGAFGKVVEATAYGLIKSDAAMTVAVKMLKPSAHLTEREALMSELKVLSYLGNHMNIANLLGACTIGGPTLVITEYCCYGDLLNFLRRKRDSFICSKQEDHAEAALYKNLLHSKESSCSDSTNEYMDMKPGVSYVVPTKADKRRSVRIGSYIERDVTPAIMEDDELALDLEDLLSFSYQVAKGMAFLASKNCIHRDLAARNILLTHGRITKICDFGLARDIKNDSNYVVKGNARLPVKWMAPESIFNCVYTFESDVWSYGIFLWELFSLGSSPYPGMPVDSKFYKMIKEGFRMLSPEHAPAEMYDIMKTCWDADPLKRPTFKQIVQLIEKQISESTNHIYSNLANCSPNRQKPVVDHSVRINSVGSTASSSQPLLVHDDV

As to `Cn1cc(-c2ccc(CNc3cc(-c4cnc5cc(OC6CCOC6)ccn45)ncn3)cc2)cn1` (stereo not drawn) [A57, [4-(1-methyl-1H-pyrazol-4-yl)-benzyl]-{6-[7-(tetrahydro-furan-3-yloxy)-imidazo[1,2-a]pyridin-3-yl]-pyrimidin-4-yl}-amine], the IC50 in test [1] turned out to be 270 nM; in test [2], 11 nM.
Taken in the same sequence, the figures for `COc1ccn2c(-c3cc(NCc4ccc(-c5cn(C)cn5)cc4)ncn3)cnc2c1` [A20, [6-(7-methoxy-imidazo[1,2-a]pyridin-3-yl)-pyrimidin-4-yl]-[4-(1-methyl-1H-imidazol-4-yl)-benzyl]-amine] were 650 nM and 55 nM.
Regarding `Cn1cc(-c2ccc(CNc3cc(-c4cnc5cc(Cl)ccn45)ncn3)cc2)cn1` [A82, 6-{7-chloroimidazo[1,2-a]pyridin-3-yl}-N-{[4-(1-methyl-1H-pyrazol-4-yl)phenyl]methyl}pyrimidin-4-amine], the IC50 in test [1] amounted to 270 nM; in test [2], 9.2 nM.
Taken in the same sequence, the figures for `CCN(CC)CCCOc1ccn2c(-c3cc(NCc4ccc(-c5cnn(C)c5)cc4)ncn3)cnc2c1` [A137, 6-{7-[3-(diethylamino)propoxy]imidazo[1,2-a]pyridin-3-yl}-N-{[4-(1-methyl-1H-pyrazol-4-yl)phenyl]methyl}pyrimidin-4-amine] were 45 nM and 5.6 nM.
Taken in the same sequence, the figures for `Cn1cc(-c2ccc(CNc3cc(-c4cnc5cc(NC(C)(C)CO)ccn45)ncn3)cc2)cn1` [A163, 2-methyl-2-(3-{6-[4-(1-methyl-1H-pyrazol-4-yl)-benzylamino]-pyrimidin-4-yl}-imidazo[1,2-a]pyridin-7-ylamino)-propan-1-ol] were 1900 nM and 85 nM.
In the case of `COc1ccn2c(-c3cc(NCc4ccc(-c5cn(C)nc5C)cc4)ncn3)cnc2c1` [A25, [4-(1,3-dimethyl-1H-pyrazol-4-yl)-benzyl]-[6-(7-methoxy-imidazo[1,2-a]pyridin-3-yl)-pyrimidin-4-yl]-amine], the values for the IC50 in test [1] and in test [2] were 210 nM and 26 nM, respectively.
For `Cn1cc(-c2ccc(CNc3cc(-c4cnc5cc(OCCCN6CCCC6=O)ccn45)ncn3)cc2)cn1` [A145, 1-[3-({3-[6-({[4-(1-methyl-1H-pyrazol-4-yl)phenyl]methyl}amino)pyrimidin-4-yl]imidazo[1,2-a]pyridin-7-yl}oxy)propyl]pyrrolidin-2-one], the IC50 came out at 250 nM in test [1] and 41 nM in test [2].
For `CN1CCC(CCOc2ccn3c(-c4cc(NCc5ccc(-c6cnn(C)c6)cc5)ncn4)cnc3c2)CC1` [A129, (6-{7-[2-(1-methyl-piperidin-4-yl)-ethoxy]-imidazo[1,2-a]pyridin-3-yl}-pyrimidin-4-yl)-[4-(1-methyl-1H-pyrazol-4-yl)-benzyl]-amine], the IC50 in test [1] was 62 nM; in test [2], 6.1 nM.
On to `COc1ccn2c(-c3cc(NCc4ccc(-c5cnn(C)n5)cn4)ncn3)cnc2c1` [A44, [6-(7-methoxy-imidazo[1,2-a]pyridin-3-yl)-pyrimidin-4-yl]-[5-(2-methyl-2H-[1,2,3]triazol-4-yl)-pyridin-2-ylmethyl]-amine], for which the values for the IC50 in test [1] and in test [2] were 510 nM and 27 nM, respectively.
`Cn1ncc(-c2ccc(CNc3cc(-c4cnc5cc(OCc6ccccn6)ccn45)ncn3)cc2)n1` [A106, [4-(2-methyl-2H-[1,2,3]triazol-4-yl)-benzyl]-{6-[7-(pyridin-2-ylmethoxy)-imidazo[1,2-a]pyridin-3-yl]-pyrimidin-4-yl}-amine]: the figures for the IC50 in test [1] and in test [2] were 370 nM and 9.5 nM, respectively.
Consider `Cn1cc(-c2ccc(CNc3cc(-c4cnc5cc(N)ccn45)ncn3)cc2)cn1` [A162, 6-{7-aminoimidazo[1,2-a]pyridin-3-yl}-N-{[4-(1-methyl-1H-pyrazol-4-yl)phenyl]methyl}pyrimidin-4-amine], for which the IC50 in test [1] worked out at 180 nM; in test [2], 7.4 nM.
As to `CN1CCOC[C@H]1COc1ccn2c(-c3cc(NCc4ccc(-c5cnn(C)c5)cc4)ncn3)cnc2c1` [A125, N-{[4-(1-methyl-1H-pyrazol-4-yl)phenyl]methyl}-6-(7-{[(3S)-4-methylmorpholin-3-yl]methoxy}imidazo[1,2-a]pyridin-3-yl)pyrimidin-4-amine], the IC50 in test [1] was 210 nM; in test [2] it was 23 nM.
Take `Cn1ncc(-c2ccc(CNc3cc(-c4cnc5cc(OCCN6CC7CC7C6)ccn45)ncn3)cc2)n1` (stereo not drawn) [A128, (6-{7-[2-(3-aza-bicyclo[3.1.0]hex-3-yl)-ethoxy]-imidazo[1,2-a]pyridin-3-yl}-pyrimidin-4-yl)-[4-(2-methyl-2H-[1,2,3]triazol-4-yl)-benzyl]-amine]: the values for the IC50 in test [1] and in test [2] were 130 nM and 9.9 nM, respectively.
On the same counts, the results for `CN1CCO[C@@H](COc2ccn3c(-c4cc(NCc5ccc(-c6cnn(C)c6)cc5)ncn4)cnc3c2)C1` [A117, {6-[7-((R)-4-methyl-morpholin-2-ylmethoxy)-imidazo[1,2-a]pyridin-3-yl]-pyrimidin-4-yl}-[4-(1-methyl-1H-pyrazol-4-yl)-benzyl]-amine] are 30 nM and 6 nM.
Regarding `Cn1cc(-c2ccc(CNc3cc(-c4cnc5cc(OCCN6CCC[C@@H]7OCC[C@@H]76)ccn45)ncn3)cc2)cn1` [A210, (6-{7-[(3aS,7aS)-2-(hexahydro-furo[3,2-b]pyridin-4-yl)-ethoxy]-imidazo[1,2-a]pyridin-3-yl}-pyrimidin-4-yl)-[4-(1-methyl-1H-pyrazol-4-yl)-benzyl]-amine], the IC50 was determined as 100 nM in test [1] and 6.5 nM in test [2].
As to `Cn1cc(-c2ccc(CNc3cc(-c4cnc5cc(O)ccn45)ncn3)cc2)cn1` [A160, 3-[6-({[4-(1-methyl-1H-pyrazol-4-yl)phenyl]methyl}amino)pyrimidin-4-yl]imidazo[1,2-a]pyridin-7-ol], the IC50 in test [1] is 1000 nM; in test [2], 38 nM.
As for `Cn1cc(-c2ccc(CNc3cc(-c4cnc5cc(F)ccn45)ncn3)cc2)cn1` [H1, 6-{7-fluoroimidazo[1,2-a]pyridin-3-yl}-N-{[4-(1-methyl-1H-pyrazol-4-yl)phenyl]methyl}pyrimidin-4-amine], the IC50 in test [1] is 240 nM; in test [2], 12 nM.
Turning to `COc1ccn2c(-c3cc(NCc4ccc(-c5nnn(C)n5)cc4)ncn3)cnc2c1` [A37, 6-{7-methoxyimidazo[1,2-a]pyridin-3-yl}-N-{[4-(2-methyl-2H-1,2,3,4-tetrazol-5-yl)phenyl]methyl}pyrimidin-4-amine], the IC50 in test [1] is 220 nM; in test [2], 15 nM.
Taken in the same sequence, the figures for `Cn1cc(-c2ccc(CNc3cc(-c4cnc5cc(OC6CCOCC6)ccn45)ncn3)cc2)cn1` [A55, [4-(1-methyl-1H-pyrazol-4-yl)-benzyl]-{6-[7-(tetrahydro-pyran-4-yloxy)-imidazo[1,2-a]pyridin-3-yl]-pyrimidin-4-yl}-amine] were 650 nM and 22 nM.
Consider `CN1CCN(CCCOc2ccn3c(-c4cc(NCc5ccc(-c6cnn(C)c6)cc5)ncn4)cnc3c2)CC1` [A94, N-{[4-(1-methyl-1H-pyrazol-4-yl)phenyl]methyl}-6-{7-[3-(4-methylpiperazin-1-yl)propoxy]imidazo[1,2-a]pyridin-3-yl}pyrimidin-4-amine], for which the IC50 in test [1] is 64 nM; in test [2], 6.8 nM.
For `COc1ccn2c(-c3cc(NCc4ccc(-c5cnn(CCO)c5)cc4)ncn3)cnc2c1` [A30, 2-[4-(4-{[6-(7-methoxy-imidazo[1,2-a]pyridin-3-yl)-pyrimidin-4-ylamino]-methyl}-phenyl)-pyrazol-1-yl]-ethanol], the IC50 in test [1] turned out to be 180 nM; in test [2] it was 27 nM.
For the compound `COc1ccn2c(-c3cc(NCc4ccc(-c5cn(C)nc5OC)cc4)ncn3)cnc2c1` [A50, N-{[4-(3-methoxy-1-methyl-1H-pyrazol-4-yl)phenyl]methyl}-6-{7-methoxyimidazo[1,2-a]pyridin-3-yl}pyrimidin-4-amine], the IC50 in test [1] was 490 nM; in test [2], 25 nM.
`c1ccn2c(-c3cc(NCc4ccc(-c5ncc[nH]5)cc4)ncn3)cnc2c1` [A157, (6-imidazo[1,2-a]pyridin-3-yl-pyrimidin-4-yl)-[4-(1H-imidazol-2-yl)-benzyl]-amine]: the figures for the IC50 in test [1] and in test [2] were 1500 nM and 33 nM, respectively.
Take `CN1CCN(c2ccn3c(-c4cc(NCc5ccc(-c6cnn(C)c6)cc5)ncn4)cnc3c2)CC1` [A181, {6-[7-(4-methyl-piperazin-1-yl)-imidazo[1,2-a]pyridin-3-yl]-pyrimidin-4-yl}-[4-(1-methyl-1H-pyrazol-4-yl)-benzyl]-amine]: the IC50 in test [1] is 110 nM; in test [2], 15 nM.
Regarding `COc1ccn2c(-c3cc(NCc4ccc(-c5cn(C)nn5)cc4)ncn3)cnc2c1` [A31, [6-(7-methoxy-imidazo[1,2-a]pyridin-3-yl)-pyrimidin-4-yl]-[4-(1-methyl-1H-[1,2,3]triazol-4-yl)-benzyl]-amine], the figures for the IC50 in test [1] and in test [2] were 810 nM and 49 nM, respectively.
With `COc1ccn2c(-c3cc(NCc4ccc(N5CC6CCC(C5)O6)cc4)ncn3)cnc2c1` [A38, [6-(7-methoxy-imidazo[1,2-a]pyridin-3-yl)-pyrimidin-4-yl]-[4-(8-oxa-3-aza-bicyclo[3.2.1]oct-3-yl)-benzyl]-amine], the IC50 amounted to 710 nM in test [1] and 55 nM in test [2].
As for `Cn1cc(-c2ccc(CNc3cc(-c4cnc5cc(OCC6CCN(C7CC7)CC6)ccn45)ncn3)cc2)cn1` [A187, {6-[7-(1-cyclopropyl-piperidin-4-ylmethoxy)-imidazo[1,2-a]pyridin-3-yl]-pyrimidin-4-yl}-[4-(1-methyl-1H-pyrazol-4-yl)-benzyl]-amine], the IC50 in test [1] stood at 380 nM; in test [2] it was 7.5 nM.
